According to patent US20130225633A1, “PHENYL HETEROCYCLOALKYL GLUCOCORTICOID RECEPTOR MODULATORS” (Corcept Therapeutics, Inc., priority 2012, published 2013):

Key:
human recombinant GR = molecular target: T1, human recombinant GR (Homo sapiens, UniProt P04150); experiment: Human GR fluorescence polarisation (FP) binding assay (Example 23)
T1 construct: purchased PanVera P2812
T1 sequence (P04150 1-777): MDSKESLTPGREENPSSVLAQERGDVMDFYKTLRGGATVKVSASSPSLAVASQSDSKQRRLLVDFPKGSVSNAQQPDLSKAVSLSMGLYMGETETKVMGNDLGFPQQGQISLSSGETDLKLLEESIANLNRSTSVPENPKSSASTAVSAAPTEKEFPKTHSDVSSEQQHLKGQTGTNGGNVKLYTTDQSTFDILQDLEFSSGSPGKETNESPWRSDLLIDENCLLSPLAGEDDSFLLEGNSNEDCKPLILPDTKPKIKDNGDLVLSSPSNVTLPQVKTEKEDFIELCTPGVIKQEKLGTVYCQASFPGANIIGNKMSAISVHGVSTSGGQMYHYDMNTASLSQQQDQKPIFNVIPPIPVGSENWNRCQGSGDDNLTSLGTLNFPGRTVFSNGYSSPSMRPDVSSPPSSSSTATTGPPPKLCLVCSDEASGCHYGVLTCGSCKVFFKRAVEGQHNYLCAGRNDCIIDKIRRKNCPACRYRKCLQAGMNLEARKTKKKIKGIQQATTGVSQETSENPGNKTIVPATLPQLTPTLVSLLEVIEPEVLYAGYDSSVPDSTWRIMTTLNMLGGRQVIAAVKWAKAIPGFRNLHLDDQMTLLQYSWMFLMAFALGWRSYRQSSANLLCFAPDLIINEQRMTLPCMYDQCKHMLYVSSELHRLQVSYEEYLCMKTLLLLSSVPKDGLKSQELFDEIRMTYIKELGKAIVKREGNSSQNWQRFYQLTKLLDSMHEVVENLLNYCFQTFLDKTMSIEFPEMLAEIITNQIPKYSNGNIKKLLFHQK
Method: The following is a description of a FP assay for measuring compound inhibition of labelled glucocorticoid binding to the human recombinant GR.
The binding affinity of test compounds was determined using a FP binding assay using human recombinant GR (PanVera P2812) and a fluorescent labelled glucocorticoid ligand (Fluorome GS Red) (PanVera P2894). The presence of inhibitors prevents the formation of a GS Red/GR complex resulting in a decrease in the measured polarisation value. The change in polarisation value in the presence of test compounds is used to calculate the binding affinity of the compound for GR.
This assay was performed in 384 well, black, round-bottom, polypropylene micro titre plates in a final volume of 20 μl. The assay contained 5 μl 1 nM GR (final concentration), 5 μl 0.5 nM Fluorome GS Red (final concentration) in the presence of 10 μl test compounds. Positive control wells (high polarisation) receive, 10 μl 2% (v:v) DMSO vehicle (1% (v/v) final concentration)+5 μl 1 nM GR and 5 μl 0.5 nM Fluorome GS Red. […] Assay blank background wells (used for normalisation) receive 15 μl 1×GS screening buffer+5 μl GR.
For the IC50 determination (concentration of compound that displaces 50% of the bound GS Red), compounds were tested at eight different concentrations in duplicate in two independently performed experiments. Compounds were prepared as solubilised solids at 10 mM in DMSO. On the day of assay, an 8 point half-log serial dilution (55 μl DMSO+25 μl compound solution) was prepared. A 1:50 dilution (1 μl compound solution+49 μl 1×GR screening buffer) was prepared for each compound. The compounds were prepared at 2× final assay concentration.
The plates were mixed and incubated for 4 hour at room temperature. FP was measured using an Envision Excite plate reader with 535 nm excitation and 590 nm emission interference filters.
Milli-polarisation (mP) values were calculated using the below equation—
where S and P are assay blank background subtracted fluorescence units, G=G-factor (1.07).
Compound IC50 values were calculated by plotting a [compound] v. % inhibition curve and fitting the data to a 4-parameter logistic fit equation.
Reagents. 10×GR screening buffer (100 mM potassium phosphate pH 7.4, 200 mM Na2MoO4, 1 mM EDTA, 20% (v/v) DMSO). To prepare 1×GR screening buffer, combine 1 ml 10×GR screening buffer (PanVera P2814)+1 ml stabilising peptide (PanVera P2815)+7.95 ml 4° C. MQ water. Add 50 μl 1M DTT, vortex and place on ice until use.

[1] = molecular target: T2, GR (TAT induction in HepG2 cells) (Homo sapiens, UniProt P04150); experiment: cell-based; settings: read-out: GR functional Ki
T2 construct: host or cells: HepG2 (human hepatocellular carcinoma)
T2 sequence (P04150 1-777): T1 sequence (P04150 1-777)
Method: Glucocorticoid mediated activation of TAT occurs by transactivation of glucocorticoid response elements in the TAT promoter by glucocorticoid receptor-agonist complex.
TAT activity was measured as outlined in the literature by A. Ali et al., J. Med. Chem., 2004, 47, 2441-2452.
HepG2 cells were cultured using MEME media supplemented with 10% (v/v) foetal bovine serum; 2 mM L-glutamine and 1% (v/v) NEAA at 37° C., 5%/95% (v/v) CO2/air. The HepG2 cells were counted and adjusted to yield a density of 0.125×10^6 cells/ml in RPMI 1640 without phenol red, 10% (v/v) charcoal stripped FBS, 2 mM L-glutamine and seeded at 25,000 cells/well in 200 μl into 96 well, sterile, tissue culture micro titre plates, and incubated at 37° C., 5% CO2 for 24 hours
Growth media was removed and replaced with assay media {RPMI 1640 without phenol red, 2 mM L-glutamine+10 μM forskolin}. […] Compounds were serially half log diluted in 100% (v/v) dimethylsupfoxide from a 10 mM stock.
HepG2 cells were then lysed with 30 μl of cell lysis buffer containing a protease inhibitor cocktail for 15 minutes at 4° C. 155 μl of substrate mixture was then added containing 5.4 mM Tyrosine sodium salt, 10.8 mM alpha ketoglutarate and 0.06 mM pyridoxal 5′ phosphate in 0.1M potassium phosphate buffer (pH 7.4). After 2 hours incubation at 37° C. the reaction was terminated by the addition of 15 μl of 10M aqueous potassium hydroxide solution, and the plates incubated for a further 30 minutes at 37° C. The TAT activity product was measured by absorbance at λ 340 nm.
[compound] and fitting the data to a 4 parameter logistic equation.

Ki (human recombinant GR) [nM]	Ki [1] [nM]	SMILES
< 0.5	> 100	COC[C@]12Cc3cnn(-c4ccc(F)cc4)c3C=C1CCN(S(=O)(=O)c1ccc(N3CCC(C)(C)C3)cc1)C2 [Example 21, (R)-1-(4-Fluoro-phenyl)-6-[4-(3,3-dimethylpyrrolidin-1-yl)-benzenesulfonyl]-4a-methoxymethyl-4,4a,5,6,7,8-hexahydro-1H-1,2,6-triaza-cyclopenta[b]naphthalene]
< 0.5	> 100	COC[C@]12Cc3cnn(-c4ccc(F)cc4)c3C=C1CCN(S(=O)(=O)c1ccc(N3CCC(F)(F)C3)cc1)C2 [Example 16, (R)-1-(4-Fluoro-phenyl)-6-[4-(3,3-difluoropyrrolidin-1-yl)-benzenesulfonyl]-4a-methoxymethyl-4,4a,5,6,7,8-hexahydro-1H-1,2,6-triaza-cyclopenta[b]naphthalene]
